Experiments:
Assay type in all cases: cell-based
[1] = system: Ba/F3 cells expressing L858R/T790M (EGFR-LT); assay: Growth inhibition (GI50) of Ba/F3 cells expressing L858R/T790M (EGFR-LT), Celltiter glo
Procedure, shortened: (§1)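 Antiproliferative activity was assessed in EGFR-mutant or wild-type Ba/F3 cells over 72 h at 37 °C with 5% CO2. Cell viability was determined by CellTiter-Glo, and GI50 taken as the compound concentration inhibiting growth by 50%.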

[2] = system: Ba/F3 cells expressing L858R/T790M/C797S (EGFR-LTC); assay: Growth inhibition (GI50) of Ba/F3 cells expressing L858R/T790M/C797S (EGFR-LTC), Celltiter glo
Procedure, shortened: as §1

[3] = system: Ba/F3 cells expressing del19/T790M/C797S (EGFR-DTC); assay: Growth inhibition (GI50) of Ba/F3 cells expressing del19/T790M/C797S (EGFR-DTC), Celltiter glo
Procedure, shortened: as §1

[4] = system: Ba/F3 cells expressing del19/T790M (EGFR-DT); assay: Growth inhibition (GI50) of Ba/F3 cells expressing del19/T790M (EGFR-DT), Celltiter glo
Procedure, shortened: as §1

[5] = system: Ba/F3 cells expressing EGFR-wt; assay: Growth inhibition (GI50) of Ba/F3 cells expressing EGFR-wt, Celltiter glo
Procedure, shortened: as §1

parental Ba/F3 cell line = assay: Growth inhibition (GI50) of the parental Ba/F3 cell line (not introduced with EGFR variants), Celltiter glo; settings: parental Ba/F3 cells
Procedure, shortened: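 Parental Ba/F3 cells (100,000 cells/ml) were treated with 10-point, 4-fold compound dilutions (0.5% DMSO; top stock 2 mM) for 72 h at 37 °C, 5% CO2. Viability was read by CellTiter-Glo; GI50 is the concentration (μM) giving 50% growth inhibition.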

| SMILES | GI50 ([1]; Mus musculus, BaF3, 72 h) | GI50 ([2]; Mus musculus, BaF3, 72 h) | GI50 ([3]; Mus musculus, BaF3, 72 h) | GI50 ([4]; Mus musculus, BaF3, 72 h) | GI50 ([5]; Mus musculus, BaF3, 72 h) | GI50 ([1]; 72 h) | GI50 ([2]; 72 h) | GI50 ([3]; 72 h) | GI50 ([4]; 72 h) | GI50 ([5]; 72 h) | GI50 (parental Ba/F3 cell line; Mus musculus, BaF3, 72 h) | GI50 (parental Ba/F3 cell line; 72 h) |
| --- | --- | --- | --- | --- | --- | --- | --- | --- | --- | --- | --- | --- |
| Cc1cc(Nc2ncc(Br)c(Nc3ccc(F)cc3NS(C)(=O)=O)n2)c(Cl)cc1N1CCC(N2CCCN(C)CC2)CC1 [Example 44, N-(2-((5-bromo-2-((2-chloro-5-methyl-4-(4-(4-methyl-1,4-diazepan-1-yl)piperidin-1-yl)phenyl)amino)pyrimidin-4-yl)amino)-5-fluorophenyl)methanesulfonamide] | 100 to 500 nM | 25 to 100 nM | 25 to 100 nM | 25 to 100 nM | 500 to 2000 nM | – | – | – | – | – | 500 to 2000 nM | – |
| COc1nc(N2CCS(=O)(=O)CC2)ccc1Nc1ncc(Cl)c(Nc2ccccc2NS(C)(=O)=O)n1 [Example 6] | 500 to 2000 nM | 500 to 2000 nM | 500 to 2000 nM | 500 to 2000 nM | 500 to 2000 nM | – | – | – | – | – | > 10000 nM | – |
| Cc1cc(Nc2ncc(Cl)c(Nc3cc(Cl)ccc3N(C)S(C)(=O)=O)n2)c(Cl)cc1N1CCC(N2CCCN(C)CC2)CC1 [Example 180, N-(4-chloro-2-((5-chloro-2-((2-chloro-5-methyl-4-(4-(4-methyl-1,4-diazepan-1-yl)piperidin-1-yl)phenyl)amino)pyrimidin-4-yl)amino)phenyl)-N-methylmethanesulfonamide] | 25 to 100 nM | 25 to 100 nM | 25 to 100 nM | 25 to 100 nM | 500 to 2000 nM | – | – | – | – | – | 2000 to 10000 nM | – |
| COc1cc(N2CCC(N3CCN(C)CC3)CC2)c(Cl)cc1Nc1ncc(Cl)c(Nc2cc(Cl)c(F)cc2NS(C)(=O)=O)n1 [Example 181, N-(4-chloro-2-((5-chloro-2-((5-chloro-2-methoxy-4-(4-(4-methylpiperazin-1-yl)piperidin-1-yl)phenyl)amino)pyrimidin-4-yl)amino)-5-fluorophenyl)methanesulfonamide] | 25 to 100 nM | 25 to 100 nM | 100 to 500 nM | 25 to 100 nM | 500 to 2000 nM | – | – | – | – | – | 2000 to 10000 nM | – |
| CNS(=O)(=O)c1ccccc1Nc1nc(Nc2cc(C)c(N3CCC(N4CCN(C)CC4)CC3)nc2OC)ncc1Cl [Example 58, 2-((5-chloro-2-((2-methoxy-5-methyl-6-(4-(4-methylpiperazin-1-yl)piperidin-1-yl)pyridin-3-yl)amino)pyrimidin-4-yl)amino)-N-methylbenzenesulfonamide] | 500 to 2000 nM | 100 to 500 nM | 100 to 500 nM | 100 to 500 nM | 100 to 500 nM | – | – | – | – | – | 100 to 500 nM | – |
| COc1cc(N2CCC(N3CCCN(C)CC3)CC2)c(C)cc1Nc1ncc(Cl)c(Nc2cc3c(cc2NS(C)(=O)=O)CCO3)n1 [Example 165, N-(6-((5-chloro-2-((2-methoxy-5-methyl-4-(4-(4-methyl-1,4-diazepan-1-yl)piperidin-1-yl)phenyl)amino)pyrimidin-4-yl)amino)-2,3-dihydrobenzofuran-5-yl)methanesulfonamide] | 25 to 100 nM | 25 to 100 nM | 25 to 100 nM | 25 to 100 nM | 500 to 2000 nM | – | – | – | – | – | 2000 to 10000 nM | – |
| Cc1cc(Nc2ncc(Cl)c(Nc3cc(Cl)ccc3N(C)S(C)(=O)=O)n2)c(Cl)cc1N1CCC(N2CCC(N(C)C)C2)CC1 (stereo not drawn) [Example 179, N-(4-chloro-2-((5-chloro-2-((2-chloro-4-(4-(3-(dimethylamino)pyrrolidin-1-yl)piperidin-1-yl)-5-methylphenyl)amino)pyrimidin-4-yl)amino)phenyl)-N-methylmethanesulfonamide] | 25 to 100 nM | 25 to 100 nM | 100 to 500 nM | 100 to 500 nM | 100 to 500 nM | – | – | – | – | – | 500 to 2000 nM | – |

Continued, in another order:

| GI50 ([1]; Mus musculus, BaF3, 72 h) | GI50 ([2]; Mus musculus, BaF3, 72 h) | GI50 ([3]; Mus musculus, BaF3, 72 h) | GI50 ([4]; Mus musculus, BaF3, 72 h) | GI50 ([5]; Mus musculus, BaF3, 72 h) | GI50 ([1]; 72 h) | GI50 ([2]; 72 h) | GI50 ([3]; 72 h) | GI50 ([4]; 72 h) | GI50 ([5]; 72 h) | SMILES | GI50 (parental Ba/F3 cell line; Mus musculus, BaF3, 72 h) | GI50 (parental Ba/F3 cell line; 72 h) |
| --- | --- | --- | --- | --- | --- | --- | --- | --- | --- | --- | --- | --- |
| 25 to 100 nM | 25 to 100 nM | 1 to 25 nM | 1 to 25 nM | 500 to 2000 nM | – | – | – | – | – | CCc1cc(Nc2ncc(Br)c(Nc3cc4c(cc3N(C)S(C)(=O)=O)CCO4)n2)c(OC)cc1N1CCC(N2CCN(C)CC2)CC1 [Example 254, N-(6-((5-bromo-2-((5-ethyl-2-methoxy-4-(4-(4-methylpiperazin-1-yl)piperidin-1-yl)phenyl)amino)pyrimidin-4-yl)amino)-2,3-dihydrobenzofuran-5-yl)-N-methylmethanesulfonamide] | 500 to 2000 nM | – |
| 25 to 100 nM | 25 to 100 nM | 25 to 100 nM | 25 to 100 nM | 100 to 500 nM | – | – | – | – | – | CN1CCN(C2CCN(c3cc(Cl)c(Nc4ncc(Cl)c(Nc5cc(Cl)ccc5N(C)S(C)(=O)=O)n4)cc3Cl)CC2)CC1 [Example 226, N-(4-chloro-2-((5-chloro-2-((2,5-dichloro-4-(4-(4-methylpiperazin-1-yl)piperidin-1-yl)phenyl)amino)pyrimidin-4-yl)amino)phenyl)-N-methylmethanesulfonamide] | 500 to 2000 nM | – |
| 25 to 100 nM | 25 to 100 nM | 100 to 500 nM | 25 to 100 nM | 500 to 2000 nM | – | – | – | – | – | COc1cc(N2CCC(N3CCCC(N(C)C)C3)CC2)c(C)cc1Nc1ncc(Cl)c(Nc2cc3c(cc2N(C)S(C)(=O)=O)CCO3)n1 (stereo not drawn) [Example 267, N-(6-((5-chloro-2-((4-(3-(dimethylamino)-[1,4′-bipiperidin]-1′-yl)-2-methoxy-5-methylphenyl)amino)pyrimidin-4-yl)amino)-2,3-dihydrobenzofuran-5-yl)-N-methylmethanesulfonamide] | 500 to 2000 nM | – |
| 25 to 100 nM | 25 to 100 nM | 25 to 100 nM | 100 to 500 nM | 500 to 2000 nM | – | – | – | – | – | COc1cc(N2CCC(Nc3ccnn3C)CC2)c(C)cc1Nc1ncc(Cl)c(Nc2cc3c(cc2NS(C)(=O)=O)CCO3)n1 [Example 224, N-(6-((5-chloro-2-((2-methoxy-5-methyl-4-(4-((1-methyl-1H-pyrazol-5-yl)amino)piperidin-1-yl)phenyl)amino)pyrimidin-4-yl)amino)-2,3-dihydrobenzofuran-5-yl)methanesulfonamide] | 100 to 500 nM | – |
| – | – | – | – | – | 100 to 500 nM | 25 to 100 nM | 25 to 100 nM | 100 to 500 nM | 500 to 2000 nM | COc1cc(N2CCC(N3CCN(C)CC3)CC2)c(C)cc1Nc1ncc(Br)c(Nc2ccc3nccnc3c2P(C)(C)=O)n1 [TQB-3804] | – | 500 to 2000 nM |
| 100 to 500 nM | 100 to 500 nM | 500 to 2000 nM | 500 to 2000 nM | 25 to 100 nM | – | – | – | – | – | COc1cc(N2CCC(N3CCN(C)CC3)CC2)c(Cl)cc1Nc1ncc(Cl)c(Nc2ccc3c(c2)N(C)CC3)n1 [Example 273] | 500 to 2000 nM | – |
| 25 to 100 nM | 25 to 100 nM | 25 to 100 nM | 1 to 25 nM | 100 to 500 nM | – | – | – | – | – | COc1ccc(NS(C)(=O)=O)c(Nc2nc(Nc3cc(Cl)c(N4CCC(N5CCN(C)CC5)CC4)cc3Cl)ncc2Cl)c1 [Example 202, N-(2-((5-chloro-2-((2,5-dichloro-4-(4-(4-methylpiperazin-1-yl)piperidin-1-yl)phenyl)amino)pyrimidin-4-yl)amino)-4-methoxyphenyl)methanesulfonamide] | 100 to 500 nM | – |
| 25 to 100 nM | 100 to 500 nM | 100 to 500 nM | 100 to 500 nM | 500 to 2000 nM | – | – | – | – | – | COc1cc(N2CCC(N3CCN(C)CC3)CC2)ccc1Nc1ncc(Cl)c(Nc2cc3c(cc2NS(C)(=O)=O)CCO3)n1 [Example 220, N-(6-((5-chloro-2-((2-methoxy-4-(4-(4-methylpiperazin-1-yl)piperidin-1-yl)phenyl)amino)pyrimidin-4-yl)amino)-2,3-dihydrobenzofuran-5-yl)methanesulfonamide] | 25 to 100 nM | – |
